In patent US20180163250A1, “Screening Broths Comprising Esculatin Compounds for the Detection of Specific Microorganisms” (Neogen Corporation, priority 2016, published 2018):
Counter-ions that a name gives are not always drawn.

Key:
Type in all cases: cell-based
[1] = test system: phosphatase activity of methicillin resistant staphylococcus aureus; test: Blackening after addition of ferric ammonium citrate (free CHE, phosphatase activity) in MRSA broth; settings: for Color or masking reaction (blackening reaction, dark precipitate): MRSA broth, after ferric ammonium citrate; for blackening after the addition of ferric ammonium citrate indicating the presence of free 3,4-cyclohexenoesculatin: 5 minutes at ambient temperature after FAC
Description: (§1) CHE-phosphate, and 3,4-cyclohexenoesculatin diphosphate were dissolved at 200 mg/ml in a 50:50 mixture of dimethylformamide and water. 5-bromo-4-chloroindoxyl phosphate was dissolved at 200 mg/ml in a 50:50 mixture of ethanol and water. The mixtures of compounds were added individually to a MRSA broth (LAB588; Lab M limited) pre-dispensed to 10 ml volumes, after supplementation with cefoxitin selective agent, as 25 μL additions from the prepared stock solutions.
(§2) A 0.5 Macfarlane standard suspension of methicillin resistant staphylococcus aureus strains were prepared from 18-24 h cultures grown in tryptic soy broth (LAB004; Lab M Limited) at 37° C. These were diluted and added to the MRSA broth samples in an amount sufficient to inoculate each sample with 100-1000 colony forming units (cfu). Target concentration was achieved by diluting a culture to a target level and inoculating sets of tubes at different inoculum dilutions so as to achieve the target range. The actual quantity inoculated was confirmed by plating 50 μl of the dilution onto Tryptone soy agar (LAB011) and incubating the plates for 18-24 h at 37° C. and counting the resulting colonies. This information was used to determine which tubes had been inoculated within the target dosing range.
(§3) The broth is designed to selectively indicate a positive presence of MRSA by a yellow color, or a presumptive positive presence of MRSA by an orange color (Table 1). To the CHE-phosphate and 3,4-cyclohexenoesculatin diphosphate was added 50 μL of a 250/mg/ml stock solution of Ferric ammonium citrate and samples were allowed to incubate at ambient temperature for 5 minutes.

[2] = test system: methicillin resistant staphylococcus aureus strains; test: Growth and initial color change in MRSA screening broth (LAB588) containing the substrate; settings: for Initial color change indicating the presence of MRSA: LAB588 broth with cefoxitin, 100-1000 cfu
Description: as §1, §2, §3

[3] = test system: Listeria monocytogenes NCTC 10257; test: Masking of fluorogenic reaction by CHE glucoside and ferric ammonium citrate in broth; settings: uv light
Description: 4-methylumbelliferyl-β-D glucopyranoside (MC633 from Sigma Aldrich) was dissolved in water at 100 mg/ml and 25 μL of this stock solution added to pre-dispensed 10 mL volumes of Lab589 (Lab M Limited) and Lab049 (Brain heart infusion broth Lab M limited). Listeria monocytogenes NCTC 10257 were prepared from 18-24 hour cultures grown in tryptic soy broth (LAB004 from Lab M Limited) at 37° C. These were diluted so as to inoculate each sample with 100-1000 cfu. Samples were then incubated at 37° C. for 24 hours. Samples were then observed and confirmed for bacterial growth, and further observed under an ultra violet light for fluorescence. The samples were then supplemented with 3,4-cyclohexenoesculatin glucoside (Biosynth C9218), from a 200 mg/ml in 50:50 mixture of dimethylformamide and water. 50 μL of a 250/mg/ml stock solution of ferric ammonium citrate was added to each sample, observing visually for blackening and under ultra violet light for fluorescence masking after 15 minutes incubation at ambient. Table 5 provides that 3,4-cyclohexenoesculatin glucoside can be used as an additional masking reagent to confirm fluorogenic based broth systems.

[4] = test system: Listeria monocytogenes, NCTC5348 and NCTC10527; test: Pre- and post-incubation detection of enzymatic activity in Listeria express broth (LAB589)
Description: 3,4-cyclohexenoesculatin glucoside, was dissolved at 200 mg/ml in 50:50 mixture of dimethylformamide and water. The mixture was then added to pre-dispensed 10 ml volume samples of Listeria express broth (LAB589 from Lab M limited) as 25 μL additions from the prepared stock solutions. Additional broth samples without added chromogen were prepared and inoculated at the same time as the chromogen containing samples. The stock solution was then stored at −20° C. for 24 hours. A 0.5 Macfarlane standard suspension of Listeria monocytogenes, NCTC5348 and NCTC10527, was prepared from 18-24 hour cultures grown in tryptic soy broth (LAB004 from Lab M Limited) at 37° C. These were diluted so as to inoculate each sample with 100-1000 or 10,000-100,000 cfu. Samples were then incubated at 37° C. for 24 hours. The samples were then observed, and bacterial growth confirmed. 50 μL of a 250/mg/ml stock solution of ferric ammonium citrate was then added to each sample. Samples without 3,4-cyclohexenoesculatin glucoside chromogen were then supplemented with 25 μL additions from the stored 3,4-cyclohexenoesculatin glucoside stock solution and observed at ambient temperature for 30 minutes.

[5] = L. monocytogenes NCTC 5348 100 cfu, glucoside added post incubation
[6] = L. monocytogenes NCTC 5348 100 cfu, glucoside added pre incubation
[7] = L. monocytogenes NCTC 5348 10000 cfu, glucoside added post incubation
[8] = L. monocytogenes NCTC 5348 10000 cfu, glucoside added pre incubation
[9] = L. monocytogenes NCTC 10527 100 cfu, glucoside added post incubation
[10] = L. monocytogenes NCTC 10527 100 cfu, glucoside added pre incubation
[11] = L. monocytogenes NCTC 10527 10000 cfu, glucoside added post incubation
[12] = L. monocytogenes NCTC 10527 10000 cfu, glucoside added pre incubation

O=P(O)(O)Oc1c[nH]c2ccc(Br)c(Cl)c12 [Indoxyl phosphate, 5-bromo-4-chloroindoxyl phosphate, reference compound]
Color or masking reaction (blackening reaction, dark precipitate) [1]: no detectable color or masking reaction
Initial color change indicating the presence of MRSA ([2]; MRSA 3): Growth (orange)
Initial color change indicating the presence of MRSA ([2]; MRSA 15): Growth (orange)
Initial color change indicating the presence of MRSA ([2]; MRSA 15A (clinical isolate)): Growth (orange)
Initial color change indicating the presence of MRSA ([2]; MRSA 15B (clinical isolate)): Growth (orange)
Initial color change indicating the presence of MRSA ([2]; MRSA 15C (clinical isolate)): Growth (orange)
Initial color change indicating the presence of MRSA ([2]; MRSA 16A (clinical isolate)): Growth (orange)
Initial color change indicating the presence of MRSA ([2]; MRSA 16B (clinical isolate)): Growth (orange)
Initial color change indicating the presence of MRSA ([2]; MRSA 16C (clinical isolate)): Growth (orange)
Initial color change indicating the presence of MRSA ([2]; S. aureus NCTC 12493): Growth (orange)

Cc1cc(=O)oc2cc(O[C@@H]3O[C@H](CO)[C@@H](O)[C@H](O)[C@H]3O)ccc12 [4-methylumbelliferyl-β-D glucopyranoside]
Appearance T = 15 minutes post iron addition ([3]; LAB049 broth): fluorescent under uv light
Appearance t = 0 minutes post iron addition ([3]; LAB049 broth): fluorescent under uv light
Appearance T = 15 minutes post iron addition ([3]; LAb589 broth): fluorescent under uv light
Appearance t = 0 minutes post iron addition ([3]; LAb589 broth): fluorescent under uv light

O=c1oc2cc(O)c(O[C@@H]3O[C@H](CO)[C@@H](O)[C@H](O)[C@H]3O)cc2c2c1CCCC2 [3,4-cyclohexenoesculatin glucoside]
Color t = 0 minutes post iron addition [4, 5]: yellow
Color t = 15 minutes post iron addition [4, 5]: Black
Color t = 0 minutes post iron addition [4, 6]: Black
Color t = 15 minutes post iron addition [4, 6]: Black
Color t = 0 minutes post iron addition [4, 7]: yellow
Color t = 15 minutes post iron addition [4, 7]: Black
Color t = 0 minutes post iron addition [4, 8]: Black
Color t = 15 minutes post iron addition [4, 8]: Black
Color t = 0 minutes post iron addition [4, 9]: yellow
Color t = 15 minutes post iron addition [4, 9]: Black
Color t = 0 minutes post iron addition [4, 10]: Black
Color t = 15 minutes post iron addition [4, 10]: Black
Color t = 0 minutes post iron addition [4, 11]: yellow
Color t = 15 minutes post iron addition [4, 11]: Black
Color t = 0 minutes post iron addition [4, 12]: Black
Color t = 15 minutes post iron addition [4, 12]: Black
Time to strong black reaction ([4]; glucoside added post incubation): about 15 minutes
Time to strong black reaction on the addition of ferric ammonium citrate ([4]; samples incubated with the glucoside): instantly

O=c1oc2cc(OP(=O)(O)O)c(OP(=O)(O)O)cc2c2c1CCCC2 [Diphosphate, 3,4-cyclohexenoesculatin diphosphate tetra-potassium salt]
blackening after the addition of ferric ammonium citrate indicating the presence of free 3,4-cyclohexenoesculatin ([1]; MRSA 3): No change
blackening after the addition of ferric ammonium citrate indicating the presence of free 3,4-cyclohexenoesculatin ([1]; MRSA 15): No change
blackening after the addition of ferric ammonium citrate indicating the presence of free 3,4-cyclohexenoesculatin ([1]; MRSA 15A (clinical isolate)): No change
blackening after the addition of ferric ammonium citrate indicating the presence of free 3,4-cyclohexenoesculatin ([1]; MRSA 15B (clinical isolate)): No change
blackening after the addition of ferric ammonium citrate indicating the presence of free 3,4-cyclohexenoesculatin ([1]; MRSA 15 C (clinical isolate)): No change
blackening after the addition of ferric ammonium citrate indicating the presence of free 3,4-cyclohexenoesculatin ([1]; MRSA 16A (clinical isolate)): No change
blackening after the addition of ferric ammonium citrate indicating the presence of free 3,4-cyclohexenoesculatin ([1]; MRSA 16B (clinical isolate)): No change
blackening after the addition of ferric ammonium citrate indicating the presence of free 3,4-cyclohexenoesculatin ([1]; MRSA 16 C (clinical isolate)): No change
Color or masking reaction (blackening reaction, dark precipitate) [1]: does not produce the same dark precipitate
blackening after the addition of ferric ammonium citrate indicating the presence of free 3,4-cyclohexenoesculatin ([1]; S. aureus NCTC 12493): No change
Initial color change indicating the presence of MRSA ([2]; MRSA 3): Growth (yellow)
Initial color change indicating the presence of MRSA ([2]; MRSA 15): Growth (yellow)
Initial color change indicating the presence of MRSA ([2]; MRSA 15A (clinical isolate)): Growth (yellow)
Initial color change indicating the presence of MRSA ([2]; MRSA 15B (clinical isolate)): Growth (yellow)
Initial color change indicating the presence of MRSA ([2]; MRSA 15C (clinical isolate)): Growth (yellow)
Initial color change indicating the presence of MRSA ([2]; MRSA 16A (clinical isolate)): Growth (yellow)
Initial color change indicating the presence of MRSA ([2]; MRSA 16B (clinical isolate)): Growth (yellow)
Initial color change indicating the presence of MRSA ([2]; MRSA 16C (clinical isolate)): Growth (yellow)
Inhibition of the growth of MRSA ([2]; MRSA broth LAB588, summary of Table 1): not inhibitory
Initial color change indicating the presence of MRSA ([2]; S. aureus NCTC 12493): Growth (yellow)
